{"source": "patent US20110124600A1", "about": "“Use of Dopamine partial agonists for treament of the restless leg syndrome and corresponding pharmaceutical preparation” (priority 2002, published 2011)", "key": {"[1]": {"test_system": "restless leg syndrome (RLS) patients", "test": "Oral therapy of RLS patients with terguride (patient histories)", "type": "in vivo, human", "excerpt": "The invention is explained in more detail below based on examples in the form of patient histories."}, "[2]": {"test_system": "restless leg syndrome (RLS) patients", "conditions": "prior art clinical studies, cited from earlier work; for therapeutic effectiveness in RLS: levodopa perorally in the evening, 100 to 600 mg"}, "[3]": {"test_system": "sleeping pattern, REM phases", "test": "Effect of oral terguride on sleeping pattern / sleep profile", "type": "in vivo, human", "conditions": "0.5 mg p.o. up to 50 mg", "experimental": "A dosage of 0.5-2.5 mg is preferred. In the therapy of RLS, terguride in […] dosages apparently acts as a partial agonist, its acting especially on RLS symptoms as a complete agonist, but has little or no effect on the other intact dopaminergic control circuits that control vomiting, orthostasis and the sleep profile. Thus, there is no need to specially change the dosage with a view to side effects. At the same time, however, the desired effect begins very quickly, which is very useful if RLS symptoms occur in the evening, and leads to the patient being unable to fall asleep. Finally, if a longer duration of action is desirable, the dosage of 0.5, 1 mg or even higher can be increased without disturbing the sleep profile."}, "[4]": {"conditions": "cited from earlier work; for plasma half-life: in vivo"}}, "note": "“Also recorded” adds a separate entry of the source.", "data": [{"smiles": "Cc1ccc(-c2nc3ccc(C)cn3c2CC(=O)N(C)C)cc1", "note": "[zolpidem]", "values": [{"measurement": "success of previous RLS treatments", "setting": "[1]; Patient 3", "result": "only moderately successful"}]}, {"smiles": "CCCN(CCC)CCc1cccc2c1CC(=O)N2", "note": "[Ropinirole]", "values": [{"measurement": "tolerance / side effects in RLS therapy", "setting": "[2]", "result": "fewer side effects"}, {"measurement": "therapeutic effectiveness in RLS", "setting": "[2]", "result": "less effective"}]}, {"smiles": "NC(=O)N1c2ccccc2C=Cc2ccccc21", "note": "[carbamazepine]", "values": [{"measurement": "success of previous RLS treatments", "setting": "[1]; Patient 3", "result": "only moderately successful"}, {"measurement": "therapeutic effectiveness in RLS", "setting": "[2]", "result": "especially effective in the control of painful RLS symptoms"}]}, {"smiles": "OC(CCN1CCCCC1)(c1ccccc1)C1CC2C=CC1C2", "note": "(stereo not shown) [biperiden]", "values": [{"measurement": "effect of previous treatment on RLS", "setting": "[1]; Patient 2, previous treatment", "result": "little effect"}]}, {"smiles": "[Mg+2]", "note": "[magnesium]", "values": [{"measurement": "success of previous RLS treatments", "setting": "[1]; Patient 3", "result": "only moderately successful"}]}, {"smiles": "N[C@@H](Cc1ccc(O)c(O)c1)C(=O)O", "note": "[Levodopa]", "values": [{"measurement": "tolerance / side effects in RLS therapy", "setting": "[2]", "result": "generally well tolerated"}, {"measurement": "therapeutic effectiveness in RLS", "setting": "[2]", "result": "brief effectiveness"}]}, {"smiles": "CCN(CC)C(=O)N[C@H]1C[C@@H]2c3cccc4[nH]cc(c34)C[C@H]2N(C)C1", "note": "[terguride]", "values": [{"measurement": "Epworth scale", "setting": "[1]; Patient 1, daily dosage 1.5 mg orally", "result": 12}, {"measurement": "side effects", "setting": "[1]; Patient 1, daily dosage 1.5 mg orally, long-term therapy", "result": "no side effects"}, {"measurement": "improvement of RLS", "setting": "[1]; Patient 2, familial RLS, 1 mg orally", "result": "very distinct improvement"}, {"measurement": "side effects", "setting": "[1]; Patient 2, 1 mg / 0.5 mg orally", "result": "no side effects"}, {"measurement": "effectiveness in RLS", "setting": "[1]; Patient 2, further therapy with 0.5 mg", "result": "partial effectiveness"}, {"measurement": "course of RLS in withdrawal trial", "setting": "[1]; Patient 2, withdrawal of terguride", "result": "immediate deterioration"}, {"measurement": "success of RLS treatment", "setting": "[1]; Patient 3 (person two), 1 mg orally for 3 months", "result": "very good success"}, {"measurement": "side effects", "setting": "[1]; Patient 3, 1 mg orally for 3 months", "result": "no side effects"}, {"measurement": "effectiveness on renewed use after stopping when RLS symptoms recurred", "setting": "[1]; compared with first administration", "result": "same effectiveness"}, {"measurement": "tolerance in treatment of RLS", "setting": "[1]; general statement", "result": "very good tolerance"}, {"measurement": "effectiveness in oral therapy of RLS", "setting": "[1]; oral, general statement", "result": "exceptionally effective; also recorded: great effectiveness"}, {"measurement": "adverse effect on REM phases", "setting": "[3]", "result": "no adverse effect"}, {"measurement": "adverse effects on the sleeping pattern", "setting": "[3]", "result": "no adverse effects whatsoever"}]}, {"smiles": "CCCN[C@H]1CCc2nc(N)sc2C1", "note": "[Pramipexol]", "values": [{"measurement": "therapeutic effectiveness in RLS", "setting": "[2]", "result": "almost complete suppression of symptoms"}]}, {"smiles": "C=CCN1C[C@H](C(=O)N(CCCN(C)C)C(=O)NCC)C[C@@H]2c3cccc4[nH]cc(c34)C[C@H]21", "note": "[cabergoline]", "values": [{"measurement": "plasma half-life", "setting": "[4]", "result": "more than 40 hours"}]}, {"smiles": "CCCN1C[C@H](CSC)C[C@@H]2c3cccc4[nH]cc(c34)C[C@H]21", "note": "[pergolide]", "values": [{"measurement": "plasma half-life", "setting": "[4]", "result": "more than 27 hours"}, {"measurement": "course of RLS after switch from terguride", "setting": "[1]; Patient 2, later switched to pergolide", "result": "no deterioration"}]}, {"smiles": "CC(C)C[C@H]1C(=O)N2CCC[C@H]2[C@]2(O)O[C@](NC(=O)[C@@H]3C=C4c5cccc6[nH]c(Br)c(c56)C[C@H]4N(C)C3)(C(C)C)C(=O)N12", "note": "[bromocriptine]", "values": [{"measurement": "share of perorally administered dose reaching systemic blood circulation", "setting": "[4]; peroral", "result": 6, "unit": "%"}]}, {"smiles": "NCC1(CC(=O)O)CCCCC1", "note": "[gabapentin]", "values": [{"measurement": "therapeutic effectiveness in RLS", "setting": "[2]", "result": "especially effective in the control of painful RLS symptoms"}]}]}
